The test system of one data set is Phaedon cochleariae. The data set is described as follows: Phaedon cochleariae - spray test. Type of data set: in vivo. The note with it: application rate 100 g/ha; larvae on Chinese cabbage leaf discs; after 7 days. Summed up: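 Chinese cabbage leaf discs sprayed with compound formulated in acetone/DMF and water containing 1000 ppm emulsifier; once dry, infested with mustard beetle larvae. Efficacy (% larvae killed) scored after 7 days.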

The subject of a further data set is Tetranychus urticae. The data set is described as follows: Tetranychus urticae - spray test, OP-resistant. Type of data set: in vivo. The settings on record: application rate 100 g/ha; bean leaf discs; after 6 days. The method, boiled down: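 Compound dissolved in acetone/DMF, diluted with water containing 1000 ppm alkylaryl polyglycol ether emulsifier to test concentrations. Bean leaf discs infested with all stages of spider mites were sprayed; % kill determined after 6 days (100% = all mites dead, 0% = none).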

Data set [1] relates to Ctenocephalides felis. Kind of data set: Ctenocephalides felis - oral test. Type of data set: in vivo. The settings on record: application rate 100 ppm in citrated cattle blood; after 2 days. Summed up:
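Compound in DMSO diluted into citrated cattle blood, fed through a parafilm membrane to about 20 unfed adult cat fleas. Kill in % scored after 2 days (100% = all dead).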

Data set [2] can be described thus: logP determination by HPLC on a reversed-phase column (C18). The class given is physicochemical. The settings on record: for logP^a): HPLC-MS method a); for log P: HPLC-MS; for logP: HPLC, C18 reversed phase, acetonitrile/water with formic acid, EEC Directive 79/831 Annex V.A8.
Another data set deals with Spodoptera frugiperda. Kind of data set: Spodoptera frugiperda - spray test. Type of data set: in vivo. The settings on record: application rate 100 g/ha; caterpillars on maize leaf discs; after 7 days. The method, boiled down: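 Maize leaf discs sprayed with compound formulated in acetone/DMF and diluted in water containing 1000 ppm alkylaryl polyglycol ether emulsifier, then infested with armyworm caterpillars after drying. Efficacy scored after 7 days as % caterpillars killed (100% all, 0% none).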

The next data set relates to Boophilus microplus. Kind of data set: Boophilus microplus - injection test. The class given is in vivo. The note with it: application rate 20 μg/animal; injection into engorged adult female ticks; after 7 days. Summed up: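 Active ingredient in DMSO, 1 μl injected into the abdomen of 5 engorged adult female ticks, then held in a climate-controlled room. Efficacy scored after 7 days from laying of fertile eggs, with non-fertile-looking eggs kept about 42 days for larval hatch; 100% means no fertile eggs.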

The next data set relates to Myzus persicae. Kind of data set: Myzus persicae - spray test. Type of data set: in vivo. The note with it: Chinese cabbage leaf discs, after 6 days. Summed up:
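Chinese cabbage leaf discs carrying all stages of Myzus persicae sprayed with compound in acetone/DMF diluted in water with 1000 ppm emulsifier. Efficacy (% aphids killed) assessed after 6 days.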

The subject of data set [3] is Boophilus microplus Parkhurst strain, SP-resistant. The data set is described as follows: Boophilus microplus - dip test. The class given is in vivo. The note with it: application rate 100 ppm; dip of engorged adult female ticks; after 7 days. As to the method: Test animals: cattle ticks (Boophilus microplus) Parkhurst strain, SP-resistant
Solvent: dimethyl sulphoxide
10 mg of active ingredient are dissolved in 0.5 ml of dimethyl sulphoxide. For the purpose of producing a suitable formulation, the active ingredient solution is diluted with water to the concentration desired in each case.
This active ingredient formulation is pipetted into tubes. 8-10 adult engorged female cattle ticks (Boophilus microplus) are transferred into a further tube with holes. The tube is immersed into the active ingredient formulation, and all the ticks are completely wetted. After the liquid has run out, the ticks are transferred on filter discs into plastic dishes and stored in a climate-controlled room.
Efficacy is assessed after 7 days by laying of fertile eggs. Eggs which are not visibly fertile are stored in a climate-controlled cabinet until the larvae hatch after about 42 days. An efficacy of 100% means that none of the ticks has laid any fertile eggs; 0% means that all the eggs are fertile.

The next data set relates to Lucilia cuprina. The data set is described as follows: Lucilia cuprina test. Type of data set: in vivo. The settings on record: application rate 100 ppm; L1 larvae; after 2 days. Summed up:
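About 20 L1 larvae placed on minced horsemeat treated with compound, formulated in DMSO and diluted with water to test concentration. Kill in % scored after 2 days (100% = all larvae dead, 0% = none).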

The test system of data set [4] is Ctenocephalides felis. The data set is described as follows: Ctenocephalides felis - in vitro contact tests with adult cat fleas. The class given is in vivo. The settings on record: application rate 5 μg/cm2 (=500 g/ha); after 48 h; fleas dead or moribund. The method, boiled down: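 Tubes coated with compound in acetone (250 μl of 900 ppm solution gives 5 μg/cm^2 on 44.7 cm^2), solvent evaporated, then 5–10 adult fleas added and kept horizontal at room temperature and ambient humidity. After 48 h, dead or moribund (motionless/uncoordinated) fleas scored as % efficacy.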

The subject of the next data set is Rhipicephalus sanguineus. Kind of data set: Rhipicephalus sanguineus - in vitro contact tests with adult brown dog ticks. The settings on record: application rate 5 μg/cm2; after 48 h; ticks dead or moribund. Type of data set: in vivo. As for the experimental part: For the coating of the test tubes, 9 mg of active ingredient are first dissolved in 1 ml of acetone p.a. and then diluted to the desired concentration with acetone p.a. 250 μl of the solution are distributed homogeneously on the inner walls and base of a 25 ml test tube by turning and rocking on an orbital shaker (rocking rotation at 30 rpm for 2 h). With 900 ppm active ingredient solution and internal surface 44.7 cm^2, given homogeneous distribution, an area-based dose of 5 μg/cm^2 is achieved.
After the solvent has evaporated off, the tubes are populated with 5-10 adult dog ticks (Rhipicephalus sanguineus), sealed with a perforated plastic lid and incubated in a horizontal position in the dark at room temperature and ambient humidity. After 48 h, efficacy is determined. To this end, the ticks are knocked to the floor of the tube and incubated on a hotplate at 45-50° C. for not more than 5 min. Ticks which remain motionless on the floor or move in such an uncoordinated manner that they are unable to deliberately avoid the heat by climbing upwards are considered to be dead or moribund.
An efficacy of 100% means that all the ticks were dead or moribund. 0% efficacy means that none of the ticks had been harmed.

Another data set deals with Musca domestica. Kind of data set: Musca domestica test. The class given is in vivo. The note with it: application rate 100 ppm; adult houseflies; after 2 days. Summed up:
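Percent kill of adult houseflies is recorded 2 days after exposure, where 100% denotes all flies dead and 0% none. Flies (10 per vessel) feed from a sponge carrying sugar solution and the aqueous-diluted DMSO formulation.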

Where [5] appears, read: reversed-phase column (C18), Table I-T3.

As to `CCc1cc(C(F)(F)C(F)(F)F)cc(C)c1-n1cc(-c2ccc(Cl)c(C(=O)NC3(C#N)CC3)c2)cn1` [I-T3-80], the efficacy in the data set on Phaedon cochleariae is 100%; in the data set on Tetranychus urticae, 100%; in the data set with Spodoptera frugiperda, 100%; with Myzus persicae (application rate 100 g/ha), 90%; in the data set with Ctenocephalides felis [4], 100%; in the data set on Rhipicephalus sanguineus it was 80%. Further, the “efficacy (kill)” value with Ctenocephalides felis [1], with Lucilia cuprina and with Musca domestica was 100% in each case. Besides, the “logP^a)” value in data set [2] and in data set [2] (setting [5]) was 4.2 in each case. In addition, the “efficacy (laying of fertile eggs)” value in the data set on Boophilus microplus came to 100%; in data set [3], 80%.
A word on the log P: it is the decadic logarithm of the partition coefficient of the neutral form, usually between octanol and water. A low value points to lower lipophilicity. Turning to `O=C(NC1CC1)c1cc(-c2cnn(-c3c(Br)cc(C(F)(C(F)(F)F)C(F)(F)F)cc3C(F)(F)F)c2)cnc1Cl` [I-T3-160], the efficacy worked out at 100% with Phaedon cochleariae; 100% in the data set with Tetranychus urticae; 100% in the data set on Spodoptera frugiperda; 90% in the data set on Myzus persicae (application rate 100 g/ha); 100% in the data set on Ctenocephalides felis [4]; 100% with Rhipicephalus sanguineus. Further, the “efficacy (kill)” value with Ctenocephalides felis [1], in the data set with Lucilia cuprina and in the data set on Musca domestica was 100% throughout. Also, the “logP^a)” value in data set [2] (reversed-phase column (C18)) was found to be 4.0. Moreover, the “log P” value in data set [2] (setting [5]) was 4.0. The “efficacy (laying of fertile eggs)” value (in the data set on Boophilus microplus; in data set [3]) was 100% throughout.
With `N#CC1(NC(=O)c2cc(-c3cnn(-c4c(Br)cc(C(F)(C(F)(F)F)C(F)(F)F)cc4C(F)(F)F)c3)cnc2Cl)CC1` [I-T3-165], the efficacy in the data set with Phaedon cochleariae, with Tetranychus urticae, in the data set with Spodoptera frugiperda, in the data set on Myzus persicae (application rate 100 g/ha), with Ctenocephalides felis [4] and in the data set on Rhipicephalus sanguineus was 100% each time. Moreover, the “efficacy (kill)” value with Ctenocephalides felis [1], in the data set with Lucilia cuprina and in the data set on Musca domestica was 100% throughout. Also, in data set [2] (setting [5]), the “log P” value stood at 3.9. The “efficacy (laying of fertile eggs)” value (with Boophilus microplus; in data set [3]) was 100% each time.
As for `Cc1cc(C(F)(C(F)(F)F)C(F)(F)F)cc(I)c1-n1cc(-c2ccc(Cl)c(C(=O)NC3CC3)c2)cn1` [I-T3-175], the efficacy in the data set with Phaedon cochleariae, in the data set on Tetranychus urticae, in the data set on Spodoptera frugiperda, with Myzus persicae (application rate 100 g/ha), in the data set with Ctenocephalides felis [4] and with Rhipicephalus sanguineus was 100% each time. The “efficacy (kill)” value with Ctenocephalides felis [1], with Lucilia cuprina and in the data set on Musca domestica was 100% in each case. The “log P” value in [2] (setting [5]) is 4.5. In addition, the “efficacy (laying of fertile eggs)” value (in the data set on Boophilus microplus; in data set [3]) was 100% in each case.
`Cc1cc(C(F)(C(F)(F)F)C(F)(F)F)cc(I)c1-n1cc(-c2ccc(Cl)c(C(=O)NC3(C#N)CC3)c2)cn1` [I-T3-176]: the efficacy with Phaedon cochleariae, in the data set on Tetranychus urticae, in the data set on Spodoptera frugiperda, in the data set on Myzus persicae (application rate 100 g/ha), in the data set with Ctenocephalides felis [4] and with Rhipicephalus sanguineus was 100% throughout. Besides, the “efficacy (kill)” value with Ctenocephalides felis [1], in the data set on Lucilia cuprina and in the data set with Musca domestica was 100% throughout. The “log P” value in data set [2] (setting [5]) stood at 4.4. The “efficacy (laying of fertile eggs)” value (with Boophilus microplus; in data set [3]) was 100% in each case.
For orientation: logP means the decadic logarithm of the partition coefficient of the neutral form, usually between octanol and water. High values mean higher lipophilicity, low ones lower lipophilicity. For `Cc1cc(C(F)(C(F)(F)F)C(F)(F)F)cc(C)c1-c1cnn(-c2ccc(Cl)c(C(=O)NC3(C#N)CC3)c2)c1` [I-T4-2], the efficacy in the data set on Phaedon cochleariae was 100%; in the data set with Tetranychus urticae it was 100%; with Spodoptera frugiperda, 100%; with Myzus persicae (application rate 20 g/ha) it was 90%; in the data set with Ctenocephalides felis [4] it was 100%; in the data set on Rhipicephalus sanguineus, 100%. Also, the “efficacy (kill)” value with Ctenocephalides felis [1], with Lucilia cuprina and in the data set with Musca domestica was 100% in each case. Also, the logP in data set [2] is on record as 4.6. Further, in the data set on Boophilus microplus, the “efficacy (laying of fertile eggs)” value is given as 100%.
As for `Cc1cc(C(F)(C(F)(F)F)C(F)(F)F)cc(C(F)(F)F)c1-c1cc(-c2cnc(Cl)c(C(=O)NC3(C#N)CC3)c2)on1` [I-T22-4], the efficacy in the data set with Phaedon cochleariae, with Tetranychus urticae and in the data set on Rhipicephalus sanguineus was 100% throughout. In addition, the “efficacy (kill)” value in the data set with Ctenocephalides felis [1] turned out to be 100%. The compound also displayed a logP in data set [2] of 4.4. For the same compound, the “efficacy (laying of fertile eggs)” value (in the data set on Boophilus microplus; in data set [3]) was 100% in each case.
On to `Cc1cc(C(F)(C(F)(F)F)C(F)(F)F)cc(C(F)(F)F)c1-c1cc(-c2ccc(Cl)c(C(=O)NC3CC3)c2)on1` [I-T22-5], for which the efficacy with Phaedon cochleariae, with Tetranychus urticae, with Spodoptera frugiperda, with Myzus persicae (application rate 100 g/ha), in the data set with Ctenocephalides felis [4] and in the data set with Rhipicephalus sanguineus was 100% in each case. Further, the “efficacy (kill)” value in the data set on Ctenocephalides felis [1], in the data set with Lucilia cuprina and with Musca domestica was 100% each time. In data set [2], this compound had a logP of 4.9. Besides, the “efficacy (laying of fertile eggs)” value (with Boophilus microplus; in [3]) was 100% in each case.
`Cc1cc(C(F)(C(F)(F)F)C(F)(F)F)cc(C(F)(F)F)c1-c1cc(-c2cnc(Cl)c(C(=O)NC3CC3)c2)on1` [I-T22-6]: the efficacy in the data set with Phaedon cochleariae and in the data set with Rhipicephalus sanguineus was 100% each time. Besides, the “efficacy (kill)” value in the data set on Ctenocephalides felis [1] stood at 95%; in the data set with Lucilia cuprina, 100%; in the data set with Musca domestica, 90%. This compound also returned a logP in data set [2] of 4.5. In addition, the “efficacy (laying of fertile eggs)” value (in the data set on Boophilus microplus; in data set [3]) was 100% each time.
Take `Cc1cc(C(F)(C(F)(F)F)C(F)(F)F)cc(C(F)(F)F)c1-c1cc(-c2ccc(Cl)c(C(=O)NC3(C#N)CC3)c2)on1` [I-T22-7]: the efficacy in the data set on Phaedon cochleariae, with Tetranychus urticae, in the data set on Spodoptera frugiperda, in the data set with Myzus persicae (application rate 100 g/ha), in the data set with Ctenocephalides felis [4] and in the data set with Rhipicephalus sanguineus was 100% in each case. For the same compound, the “efficacy (kill)” value with Ctenocephalides felis [1], with Lucilia cuprina and with Musca domestica was 100% each time. This compound also showed a logP in data set [2] of 4.7. Also, the “efficacy (laying of fertile eggs)” value (with Boophilus microplus; in data set [3]) was 100% in each case.

These data come from US10150737B2, “Compounds for controlling arthropods” (priority 2013, dated 2018).
